From the METLIN SMRT retention time set (Domingo-Almenara et al. 2019)

Experiment: gradient 5% acetonitrile 3 min, to 50% in 2 min, to 85% in 15 min, held 3 min, 100 µL/min
Settings: column: Zorbax Extend-C18 2.1 x 50 mm; eluents: water / acetonitrile, 0.1% formic acid
Method in brief: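 The mobile phases were water and acetonitrile, each with 0.1% formic acid, pumped at 100 μL/min through a Zorbax Extend-C18 column (2.1 × 50 mm, 1.8 μm). Pure standards were injected as mixtures of ~100 molecules and detected by a quadrupole time-of-flight mass spectrometer in positive and negative ionization mode. Retention time came from computationally picked adduct peaks, each inspected by hand.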

RP-LC retention time [s] | SMILES
568 | Cc1oc2ncn(CC(C)C)c(=O)c2c1C(=O)N1CCN(c2ccccn2)CC1
884 | O=C(CCn1c(=O)sc2ccccc21)Nc1ccc(Br)cc1
580 | CCN1CCN(CC(=O)Nc2ccc(C(C)=O)cc2)C(=O)C1=O
771 | CN(CC1COCCO1)c1ccc(C(=O)O)cc1NC(=O)c1ccccc1Cl (centres undefined)
680 | O=C(CCC1CCN(c2cc(NC3CC3)ncn2)CC1)NCc1cccc(Cl)c1
927 | CC(/C=C/c1cccc(Oc2ccc(F)cc2)c1)N(O)C(N)=O (centres undefined)
863 | O=C(C1=CN(c2cccc(Br)c2)c2cc(F)ccc2S1(=O)=O)N1CCCC1
657 | Cc1ccc(-c2c(-c3nn(C)c4ncnc(N5CC[C@H](N6CCCCC6)C5)c34)cnn2C)cc1
626 | CC(=O)N1c2ccc(S(=O)(=O)N3CCCCC3)cc2CC1C(=O)NCCN1CCCCC1 (centres undefined)
778 | C=CCn1nc2ccc(S(=O)(=O)N3CCCCC3)cn2c1=O
807 | COC(=O)c1scc(-c2ccc(C)cc2)c1S(=O)(=O)N1CCN(c2ccccn2)CC1
611 | CC(=O)N(Cc1nn(C)c2c1CN(Cc1sccc1C)CC2)c1ccccc1
1060 | CC(C)(C)CC(=O)N1CCC(Oc2nccnc2N2CCc3ccccc32)C1 (centres undefined)
1010 | O=C1CC(c2noc(-c3ccccc3F)n2)CN1c1ccc(Cl)cc1 (centres undefined)
766 | O=C(C1CC(=O)N(c2n[nH]c3ccccc23)C1)N1CCC(c2noc3cc(F)ccc23)CC1 (centres undefined)
838 | COc1ccccc1N1CCN(CC(O)COc2cccc3ccccc23)CC1 (centres undefined)
674 | CC(C)c1nc2cc3c(cc2n1CC(=O)Nc1ccccc1)OCCO3
878 | O=C(NC1CC1)C1CCN(c2nc3ccc(-c4ccc(F)cc4)nc3s2)CC1
759 | O=C(Nc1ccc(Cl)cc1)C1CCc2sc(C(=O)N3CCOCC3)cc2C1 (centres undefined)
665 | O=C(CCc1nnn2c1CN(C(=O)COc1ccc(F)cc1)CC2)N1CCCC1
996 | COc1ccc(-c2noc(C3CCCN3C(=O)c3ccc(C)s3)n2)cc1 (centres undefined)
729 | COCC(=O)Nc1ccc(-c2nc3cccnc3s2)cc1C

RP-LC retention time [s] | SMILES
581 | CCCCN1CCN(C(=O)c2nc(N3CCSCC3)c3c(C)cc(C)nc3n2)CC1
771 | CC(C)(C)CC(C)(C)n1nnnc1N
1010 | CC(C)c1ccc(Nc2c(-c3ccc(N(C)C)cc3)nc3cnccn23)cc1
973 | Cc1cc(-c2nnc(-c3ccccc3)o2)c(C)n1CC(=O)NCc1cccc(Cl)c1
1120 | CCCN1C(=O)c2cc(S(=O)(=O)Nc3cc(F)ccc3C)ccc2Oc2cccnc21
786 | Cc1ccccc1CNC(=O)C1(C)Oc2cccnc2N(C)C1=O (centres undefined)
690 | Cc1ccn2cc(-c3ccc(NS(=O)(=O)c4ccc5ccccc5c4)cc3)nc2n1
1050 | Cn1c(C(=O)Nc2cccc(Cl)c2)cc2c(=O)oc3ccccc3c21
674 | Cc1cc(C)n(-c2ccnc(N3CCC(C(=O)NCC4CCCO4)CC3)n2)n1 (centres undefined)
607 | COC(=O)[C@H](CC1C=NC=N1)NCC12CC3CC(CC(C3)C1)C2 (some centres undefined)
697 | CCN1C(=O)c2cccnc2Sc2cc(C(=O)NC(C)C)ccc21
754 | O=C(Cn1ncc2c(c1=O)N(C1CC1)C(=O)CS2)NCCC1=CCCCC1
673 | CCCN(C)c1nccn2c(=O)n(CC(=O)Nc3ccc(F)cc3F)nc12
840 | COc1ccccc1N1CCN(c2cc(SCC(=O)NCc3ccc4c(c3)OCO4)ncn2)CC1
754 | CC1(C)CC(=O)C2=C(C1)Nc1ccccc1N(CC(=O)NCC1CCCO1)C2c1cccs1 (centres undefined)
809 | CC(C)CNS(=O)(=O)c1ccc(-c2nnc(C3CC3)o2)o1
1110 | COc1ccc(-c2nnc(Cc3nc(-c4ccc(C)c(C)c4)no3)o2)cc1
657 | CCN(CC)C(=O)c1cc(=O)[nH]c2c(C)cccc12
703 | COC1CCOC2(CCN(C(=O)c3cccs3)CC2)C1 (centres undefined)
584 | CC(C)COc1cc(=O)n2c(c1C(=O)NCCCN1CCCCC1)CCCCC2
794 | CCn1c(=O)c2c(cc(C)n2C)n(CC(=O)Nc2ccc(OC)c(Cl)c2)c1=O
555 | COc1ccc2c(c1)c(CN1C[C@@H](CO)[C@H](c3nc(C)no3)C1)cn2C

RP-LC retention time [s] | SMILES
889 | CCOc1ccccc1NC(=O)N1CCC(n2cnc3c(Cl)cccc3c2=O)CC1
772 | Cc1nc2ccc3nc(NC(=O)c4snnc4C)sc3c2s1
914 | O=C(Nc1cccc(OCc2nnc(-c3ccccc3)o2)c1)c1ccsc1
594 | O=C(NC1CCc2nnc(C3CC3)n2CC1)c1ccsc1 (centres undefined)
1010 | Cc1ccc(CCC(=O)Nc2nc(-c3ccc4c(c3)NC(=O)C(C)O4)c(C)s2)cc1 (centres undefined)
935 | CC(=O)N1c2ccc(S(=O)(=O)N3CCCC3C(=O)Nc3nc4ccc(C)cc4s3)cc2CC1C (centres undefined)
1270 | COc1ccc(C)cc1NC(=O)c1cc(C(C)C)n2nccc2n1
879 | CCOc1ccccc1C(=O)NC1CCN(c2cc(-c3ccc(Cl)cc3)[nH]n2)C1 (centres undefined)
634 | COc1cccc(C(O)CN2CCN(c3ccccc3)CC2)c1 (centres undefined)
686 | O=C(CC(c1cccc(F)c1)n1cccc1)N1CCN(c2ccccn2)CC1 (centres undefined)
1160 | Cc1cccc(NC(=O)Cn2nc(N3CCC(C)CC3)c3ccccc3c2=O)c1
1010 | Cc1ccc(-c2ccc(-n3nc(C)c(S(=O)(=O)Nc4ccc5c(c4)OCCO5)c3C)nn2)cc1
879 | COc1ccc2c(c1)C=C(C(=O)NCC(=O)c1cccs1)C=CO2
969 | CC(Cc1cccs1)NC(=O)Cc1ccc(SC(C)C)cc1 (centres undefined)
777 | CCOC(=O)C1=C[C@]2(CC)CCCN3CCc4c(n1c1ccccc41)[C@@H]32
813 | Cc1cc(-c2nnc(C3CC3)o2)c(C)n1CC(=O)NCc1cc(F)cc(F)c1
999 | CCc1ccc(S(=O)(=O)N2CCC(C(=O)NCc3csc(-c4ccccc4)n3)CC2)cc1
691 | Cc1ccc(C)c(CNC(=O)C2CCc3nc(N4CCCC4)ncc3C2)c1 (centres undefined)
1050 | Cc1ccccc1CN1N=C(C(=O)N2CCC(C)CC2)S(=O)(=O)c2ccccc21
700 | COc1ccc(-c2c(C)noc2NC(C)=O)cc1S(=O)(=O)N1CCN(c2ncccn2)CC1
665 | COCCn1ccc2nc(C)c(C(=O)NCCCc3ccco3)cc2c1=O
614 | O=C(NCC1CCN(c2ncccn2)CC1)C(=O)Nc1ccon1

RP-LC retention time [s] | SMILES
617 | CCC(=O)N1c2ccc(S(=O)(=O)CCC(=O)NCc3ccc(N(C)C)cc3)cc2CC1C (centres undefined)
787 | Cc1ccc(NC(=O)C2CC(=O)N(c3ccc4c(c3)CCN4C(=O)C3CC3)C2)c(F)c1 (centres undefined)
987 | CCS(=O)(=O)N1CCCc2cc(C(=O)NCCC3=CCCCC3)ccc21
788 | CC1=C(c2ccc(C)c(C)c2)S(=O)(=O)N=C1N1CCCN(C(=O)c2cccnc2)CC1
782 | O=C(c1cncc(Br)c1)N1CCC(Cc2nnc(-c3ccccc3)o2)CC1
1180 | COc1cccc2cc(C(=O)Nc3nc(-c4ccccc4)cs3)c(=O)oc12
766 | O=C(NCc1ccc2c(c1)OCO2)C1CCN(C(=O)c2ccc(Cl)cc2)CC1
656 | CCc1ccc(Oc2cc(N3CCC(C(=O)NCCc4ccccn4)CC3)ncn2)cc1
590 | Cc1cnn(Cc2c(C(=O)N3C[C@@H](C(N)=O)[C@H](c4nc(C)no4)C3)noc2C)c1
1110 | CCCn1cc(C(=O)NCCCOCC)c(S(=O)(=O)N2CCN(c3cccc(Cl)c3)CC2)n1
1100 | COc1cccc(-n2cc(C(=O)OCc3ccco3)c3ccccc3c2=O)c1
902 | Cn1cc(-c2cc3n(n2)CCC(=O)N3CC(=O)Nc2ccc(Cl)cc2)c2ccccc21
711 | COC(=O)CNC(=O)N1CCCCC1c1nc(CCOCC2CC2)no1 (centres undefined)
1110 | CCCCC(=O)N1CCN(c2nc3ccccc3n(CC(C)C)c2=O)CC1
702 | CCn1cc(S(=O)(=O)N2CCCN(S(=O)(=O)c3ccccc3)CCC(=O)NCC2)cn1
742 | COc1nn(C)cc1C(=O)N1CCCC(COCc2ccccc2)C1 (centres undefined)
703 | O=C(CC1CCN(C(=O)NCc2ccccc2)CC1)N1CCCCC1
1110 | COc1cccc(-c2nc(-c3ccc4oc(C)nc4c3)no2)c1
621 | CCc1noc(-c2cnc3nc(C)ccc3c2NCCc2ccccc2)n1
924 | Cc1cc(N2CCCC2)nc(N2CCN(S(=O)(=O)c3ccc4c(c3)Cc3ccccc3-4)CC2)n1
1110 | O=C(Nc1nc(-c2ccc(Cl)cc2)cs1)c1ccc2c(c1)OCO2

SMILES | RP-LC retention time [s]
NC(=O)C(=O)c1cn(Cc2ccc(F)cc2)c2ccccc12 | 811
COc1ccc(O)c2c(=O)c3c(OC)cc4c(c3oc12)[C@@H]1C=CO[C@@H]1O4 | 979
